Measured values as given in PubChem BioAssay AID2060328 (Molecular Pharmacology Branch, DTP, NCI, 2025).
pIC50: −log10 of the molar value.

Tested on: MDA-MB-231 multicell spheroids, viability (%T/C)
Assay: Anticancer human tumor MDA-MB-231 cell line growth inhibition [IpAb];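 also: viability read after seven days of drug exposure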;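 as to viability, T/C: 100% = DMSO vehicle control viability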
Details: for pIC50: curve of first compound; for viability, T/C: stronger effect = lower value
Summary of the method: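 Spheroids of 60% malignant cells, 25% HUVEC and 15% MSC were exposed to targeted agents combined with ipatasertib or abemaciclib. Doses started at or near clinical Cmax (10 microM when unknown) and fell in half-log steps.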

[1] = second compound 0.01 µM, first compound 0.00949 µM
[2] = second compound 0.01 µM, first compound 0.03 µM
[3] = second compound 0.01 µM, first compound 0.0949 µM
[4] = second compound 0.01 µM, first compound 0.3 µM
[5] = second compound 0.0316 µM, first compound 0.00949 µM
[6] = second compound 0.0316 µM, first compound 0.03 µM
[7] = second compound 0.0316 µM, first compound 0.0949 µM
[8] = second compound 0.0316 µM, first compound 0.3 µM
[9] = second compound 0.1 µM, first compound 0.00949 µM
[10] = second compound 0.1 µM, first compound 0.03 µM
[11] = second compound 0.1 µM, first compound 0.0949 µM
[12] = second compound 0.1 µM, first compound 0.3 µM
[13] = second compound 0.316 µM, first compound 0.00949 µM
[14] = second compound 0.316 µM, first compound 0.03 µM
[15] = second compound 0.316 µM, first compound 0.0949 µM
[16] = second compound 0.316 µM, first compound 0.3 µM
[17] = second compound 1 µM, first compound 0.00949 µM
[18] = second compound 1 µM, first compound 0.03 µM
[19] = second compound 1 µM, first compound 0.0949 µM
[20] = second compound 1 µM, first compound 0.3 µM
[21] = second compound 0.01 µM, first compound 0.0316 µM
[22] = second compound 0.01 µM, first compound 0.1 µM
[23] = second compound 0.01 µM, first compound 0.316 µM
[24] = second compound 0.01 µM, first compound 1 µM
[25] = second compound 0.0316 µM, first compound 0.0316 µM
[26] = second compound 0.0316 µM, first compound 0.1 µM
[27] = second compound 0.0316 µM, first compound 0.316 µM
[28] = second compound 0.0316 µM, first compound 1 µM
[29] = second compound 0.1 µM, first compound 0.0316 µM
[30] = second compound 0.1 µM, first compound 0.1 µM
[31] = second compound 0.1 µM, first compound 0.316 µM
[32] = second compound 0.1 µM, first compound 1 µM
[33] = second compound 0.316 µM, first compound 0.0316 µM
[34] = second compound 0.316 µM, first compound 0.1 µM
[35] = second compound 0.316 µM, first compound 0.316 µM
[36] = second compound 0.316 µM, first compound 1 µM
[37] = second compound 1 µM, first compound 0.0316 µM
[38] = second compound 1 µM, first compound 0.1 µM
[39] = second compound 1 µM, first compound 0.316 µM
[40] = second compound 1 µM, first compound 1 µM
[41] = second compound 0.01 µM, first compound 3.16 µM
[42] = second compound 0.01 µM, first compound 10 µM
[43] = second compound 0.0316 µM, first compound 3.16 µM
[44] = second compound 0.0316 µM, first compound 10 µM
[45] = second compound 0.1 µM, first compound 3.16 µM
[46] = second compound 0.1 µM, first compound 10 µM
[47] = second compound 0.316 µM, first compound 3.16 µM
[48] = second compound 0.316 µM, first compound 10 µM
[49] = second compound 1 µM, first compound 3.16 µM
[50] = second compound 1 µM, first compound 10 µM

CC(=O)c1c(C)c2cnc(Nc3ccc(N4CCNCC4)cn3)nc2n(C2CCCC2)c1=O + CCN1CCN(Cc2ccc(Nc3ncc(F)c(-c4cc(F)c5nc(C)n(C(C)C)c5c4)n3)nc2)CC1
pIC50 (second compound 0.01 µM): 7.23 | pIC50 (second compound 0.0316 µM): 7.35 | pIC50 (second compound 0.1 µM): 7.74 | pIC50 (second compound 0.316 µM): 8.92 | pIC50 (second compound 1 µM): < 6.52 | viability, T/C (second compound 0.01 µM, first compound 0.000949 µM): 87.9% | viability, T/C (second compound 0.01 µM, first compound 0.003 µM): 82.1% | viability, T/C [1]: 74.1% | viability, T/C [2]: 55.2% | viability, T/C [3]: 46.3% | viability, T/C [4]: 43.1% | viability, T/C (second compound 0.0316 µM, first compound 0.000949 µM): 71.8% | viability, T/C (second compound 0.0316 µM, first compound 0.003 µM): 71.5% | viability, T/C [5]: 66.8% | viability, T/C [6]: 52.8% | viability, T/C [7]: 44.4% | viability, T/C [8]: 40.4% | viability, T/C (second compound 0.1 µM, first compound 0.000949 µM): 60% | viability, T/C (second compound 0.1 µM, first compound 0.003 µM): 59.2% | viability, T/C [9]: 54% | viability, T/C [10]: 47.1% | viability, T/C [11]: 41% | viability, T/C [12]: 41.8% | viability, T/C (second compound 0.316 µM, first compound 0.000949 µM): 49.2% | viability, T/C (second compound 0.316 µM, first compound 0.003 µM): 50.9% | viability, T/C [13]: 46.2% | viability, T/C [14]: 44.7% | viability, T/C [15]: 44% | viability, T/C [16]: 42% | viability, T/C (second compound 1 µM, first compound 0.000949 µM): 55.4% | viability, T/C (second compound 1 µM, first compound 0.003 µM): 58.5% | viability, T/C [17]: 53.8% | viability, T/C [18]: 53.4% | viability, T/C [19]: 52.8% | viability, T/C [20]: 48.9%

CC(C)(C)c1cnc(CSc2cnc(NC(=O)C3CCNCC3)s2)o1 + CCN1CCN(Cc2ccc(Nc3ncc(F)c(-c4cc(F)c5nc(C)n(C(C)C)c5c4)n3)nc2)CC1
pIC50 (second compound 0.01 µM): 6.77 | pIC50 (second compound 0.0316 µM): 6.83 | pIC50 (second compound 0.1 µM): 6.92 | pIC50 (second compound 0.316 µM): 7.48 | pIC50 (second compound 1 µM): 7.44 | viability, T/C [1]: 92.2% | viability, T/C [2]: 102% | viability, T/C [3]: 106% | viability, T/C [4]: 1.81% | viability, T/C (second compound 0.01 µM, first compound 0.949 µM): 0.77% | viability, T/C (second compound 0.01 µM, first compound 3 µM): 0.81% | viability, T/C [5]: 76.8% | viability, T/C [6]: 82.2% | viability, T/C [7]: 83.9% | viability, T/C [8]: 1.55% | viability, T/C (second compound 0.0316 µM, first compound 0.949 µM): 0.68% | viability, T/C (second compound 0.0316 µM, first compound 3 µM): 0.85% | viability, T/C [9]: 59.1% | viability, T/C [10]: 63.1% | viability, T/C [11]: 66% | viability, T/C [12]: 1.37% | viability, T/C (second compound 0.1 µM, first compound 0.949 µM): 0.89% | viability, T/C (second compound 0.1 µM, first compound 3 µM): 1.1% | viability, T/C [13]: 47.4% | viability, T/C [14]: 53.4% | viability, T/C [15]: 46.1% | viability, T/C [16]: 1.36% | viability, T/C (second compound 0.316 µM, first compound 0.949 µM): 0.96% | viability, T/C (second compound 0.316 µM, first compound 3 µM): 0.95% | viability, T/C [17]: 52.7% | viability, T/C [18]: 53.4% | viability, T/C [19]: 34.9% | viability, T/C [20]: 1.87% | viability, T/C (second compound 1 µM, first compound 0.949 µM): 1.16% | viability, T/C (second compound 1 µM, first compound 3 µM): 1.42%

COc1c(OCCCN2CCOCC2)ccc2c3n(c(=NC(=O)c4cnc(N)nc4)nc12)CCN3 + CCN1CCN(Cc2ccc(Nc3ncc(F)c(-c4cc(F)c5nc(C)n(C(C)C)c5c4)n3)nc2)CC1
pIC50 (second compound 0.01 µM): 7.62 | pIC50 (second compound 0.0316 µM): 7.84 | pIC50 (second compound 0.1 µM): 8.33 | pIC50 (second compound 0.316 µM): > 8.50 | pIC50 (second compound 1 µM): > 8.50 | viability, T/C (second compound 0.01 µM, first compound 0.00316 µM): 81.7% | viability, T/C (second compound 0.01 µM, first compound 0.01 µM): 59% | viability, T/C [21]: 50.2% | viability, T/C [22]: 37.7% | viability, T/C [23]: 31.7% | viability, T/C [24]: 37.7% | viability, T/C (second compound 0.0316 µM, first compound 0.00316 µM): 65.5% | viability, T/C (second compound 0.0316 µM, first compound 0.01 µM): 53.1% | viability, T/C [25]: 43.9% | viability, T/C [26]: 34.1% | viability, T/C [27]: 29.7% | viability, T/C [28]: 38.5% | viability, T/C (second compound 0.1 µM, first compound 0.00316 µM): 53.7% | viability, T/C (second compound 0.1 µM, first compound 0.01 µM): 44.2% | viability, T/C [29]: 36.6% | viability, T/C [30]: 31.1% | viability, T/C [31]: 29.1% | viability, T/C [32]: 43.4% | viability, T/C (second compound 0.316 µM, first compound 0.00316 µM): 46.4% | viability, T/C (second compound 0.316 µM, first compound 0.01 µM): 41.6% | viability, T/C [33]: 35.2% | viability, T/C [34]: 31.7% | viability, T/C [35]: 34.4% | viability, T/C [36]: 67.5% | viability, T/C (second compound 1 µM, first compound 0.00316 µM): 53% | viability, T/C (second compound 1 µM, first compound 0.01 µM): 48.6% | viability, T/C [37]: 46.8% | viability, T/C [38]: 44.8% | viability, T/C [39]: 55.1% | viability, T/C [40]: 128%

Cc1nc(NC(=O)N2CCCC2C(N)=O)sc1-c1ccnc(C(C)(C)C(F)(F)F)c1 (stereo not given) + CCN1CCN(Cc2ccc(Nc3ncc(F)c(-c4cc(F)c5nc(C)n(C(C)C)c5c4)n3)nc2)CC1
pIC50 (second compound 0.01 µM): < 5.00 | pIC50 (second compound 0.0316 µM): 6.80 | pIC50 (second compound 0.1 µM): > 7.50 | pIC50 (second compound 0.316 µM): > 7.50 | pIC50 (second compound 1 µM): > 7.50 | viability, T/C [21]: 79.3% | viability, T/C [22]: 61.5% | viability, T/C [23]: 56% | viability, T/C [24]: 55.2% | viability, T/C [41]: 59.1% | viability, T/C [42]: 55.4% | viability, T/C [25]: 64% | viability, T/C [26]: 52.2% | viability, T/C [27]: 46.6% | viability, T/C [28]: 45.9% | viability, T/C [43]: 47.3% | viability, T/C [44]: 45.4% | viability, T/C [29]: 46.1% | viability, T/C [30]: 41.8% | viability, T/C [31]: 35.8% | viability, T/C [32]: 38.4% | viability, T/C [45]: 41.5% | viability, T/C [46]: 41.8% | viability, T/C [33]: 43.7% | viability, T/C [34]: 39.3% | viability, T/C [35]: 37.3% | viability, T/C [36]: 37.7% | viability, T/C [47]: 39.4% | viability, T/C [48]: 45.3% | viability, T/C [37]: 50.8% | viability, T/C [38]: 48.2% | viability, T/C [39]: 44.6% | viability, T/C [40]: 45.9% | viability, T/C [49]: 53.9% | viability, T/C [50]: 61%

Cn1nccc1Nc1nccc(-c2ccn(C(CO)c3ccc(Cl)c(F)c3)c(=O)c2)n1 (stereo not given) + CCN1CCN(Cc2ccc(Nc3ncc(F)c(-c4cc(F)c5nc(C)n(C(C)C)c5c4)n3)nc2)CC1
pIC50 (second compound 0.01 µM): 6.97 | pIC50 (second compound 0.0316 µM): > 7.50 | pIC50 (second compound 0.1 µM): > 7.50 | pIC50 (second compound 0.316 µM): > 7.50 | pIC50 (second compound 1 µM): > 7.50 | viability, T/C [21]: 58% | viability, T/C [22]: 50.2% | viability, T/C [23]: 41.8% | viability, T/C [24]: 37% | viability, T/C [41]: 29.8% | viability, T/C [42]: 21.9% | viability, T/C [25]: 45.3% | viability, T/C [26]: 42.2% | viability, T/C [27]: 35.6% | viability, T/C [28]: 28.4% | viability, T/C [43]: 24.1% | viability, T/C [44]: 23.9% | viability, T/C [29]: 34.8% | viability, T/C [30]: 34.1% | viability, T/C [31]: 27.6% | viability, T/C [32]: 24% | viability, T/C [45]: 19.9% | viability, T/C [46]: 19.2% | viability, T/C [33]: 29.6% | viability, T/C [34]: 27.2% | viability, T/C [35]: 20.7% | viability, T/C [36]: 20.6% | viability, T/C [47]: 20.2% | viability, T/C [48]: 18.8% | viability, T/C [37]: 30.5% | viability, T/C [38]: 25.7% | viability, T/C [39]: 19.3% | viability, T/C [40]: 20.7% | viability, T/C [49]: 18.6% | viability, T/C [50]: 18.7%
